Results on one molecule are retold here after US20080260774A1, “Alpha-galactosyl ceramide analogs and their use as immunotherapies” (priority 2007, published 2008).

The test system of the experiment is HA-specific peptide (9-mer). The following applies: mouse, in vivo.

For `CCCCCCCCCCCCCCCCCCCCCCCCCC(=O)N[C@@H](CO[C@H]1O[C@H](CO)[C@H](O)[C@H](O)[C@H]1O)[C@H](O)[C@H](O)CCCCCCCCCCCCCC` [C1, α-Galactosyl ceramide, reference compound], the IFN-γ secreting cells entry is recorded as “increased”.
